Measured values published in patent publication US10485236B2, “Triazole derivatives, intermediates thereof and their use as fungicides” (Bayer CropScience Aktiengesellschaft, priority 2015, dated 2019).
One block for each compound: values may come before it.

Columns and labels:
[1] = tested on: Sphaerotheca fuliginea; assay: Example M: in vivo preventive test on Sphaerotheca (cucumbers); comparison of phenoxy-pyridyl compounds vs. known phenoxy-phenyl compounds; settings: Podosphaera fuliginea, 168 h, rate of application 10 ppm, evaluated 7 days after inoculation, read-out: Efficacy in %
Method: Example M: In Vivo Preventive Test on Sphaerotheca (Cucumbers); Comparison of Phenoxy-pyridyl Compounds According to the Invention Vs. Known Phenoxy-phenyl Compounds [table] To produce a suitable preparation of active compound, 1 part by weight of active compound is mixed with the above stated amounts of solvent and emulsifier, and the concentrate is diluted with water to the desired concentration. To test for preventive activity, young plants are sprayed with the preparation of active compound at the stated rate of application. After the spray coating has dried on, the plants are inoculated with an aqueous spore suspension of Sphaerotheca fuliginea. The plants are then placed in a greenhouse at approximately 23° C. and a relative atmospheric humidity of approximately 70%. The test is evaluated 7 days after the inoculation. 0% means an efficacy which corresponds to that of the untreated control, while an efficacy of 100% means that no disease is observed. [table]

[2] = tested on: Alternaria solani; assay: Example F: in vivo preventive test on Alternaria test (tomatoes); settings: 72 h, 100 ppm of active ingredient, preventive spray, evaluated 3 days after inoculation, read-out: efficacy
Method: Example F: In Vivo Preventive Test on Alternaria Test (Tomatoes) [table] To produce a suitable preparation of active compound, 1 part by weight of active compound is mixed with the stated amounts of solvent and emulsifier, and the concentrate is diluted with water to the desired concentration. To test for preventive activity, young plants are sprayed with the preparation of active compound at the stated rate of application. After the spray coating has dried on, the plants are inoculated with an aqueous spore suspension of Alternaria solani. The plants are then placed in an incubation cabinet at approximately 20° C. and a relative atmospheric humidity of 100%. The test is evaluated 3 days after the inoculation. 0% means an efficacy which corresponds to that of the untreated control while an efficacy of 100% means that no disease is observed.

[3] = tested on: Septoria tritici; assay: Example C: in vivo preventive test on Septoria tritici (leaf spot on wheat); settings: Zymoseptoria tritici, 576 h; 500 ppm of active ingredient; wheat plants, preventive spray; evaluated 24 days after inoculation; read-out: efficacy
Method: Example C: In Vivo Preventive Test on Septoria tritici (Leaf Spot on Wheat) [table] The active ingredients are made soluble and homogenized in a mixture of Dimethyl sulfoxide/Acetone//Tween® 80 and then diluted in water to the desired concentration. The young plants of wheat are treated by spraying the active ingredient prepared as described above. Control plants are treated only with an aqueous solution of Acetone/Dimethyl sulfoxide/Tween® 80. After 24 hours, the plants are contaminated by spraying the leaves with an aqueous suspension of Septoria tritici spores. The contaminated wheat plants are incubated for 72 hours at 18° C. and at 100% relative humidity and then for 21 days at 20° C. and at 90% relative humidity. The test is evaluated 24 days after the inoculation. 0% means an efficacy which corresponds to that of the control plants while an efficacy of 100% means that no disease is observed.

[4] = tested on: Sphaerotheca fuliginea; assay: Example D: in vivo preventive test on Sphaerotheca fuliginea (powdery mildew on cucurbits); settings: Podosphaera fuliginea, 360 h; 500 ppm of active ingredient; gherkin plants, preventive spray; evaluated 15 days after inoculation; read-out: efficacy
Method: Example D: In Vivo Preventive Test on Sphaerotheca fuliginea (Powdery Mildew on Cucurbits) [table] The active ingredients are made soluble and homogenized in a mixture of Dimethyl sulfoxide/Acetone//Tween® 80 and then diluted in water to the desired concentration. The young plants of gherkin are treated by spraying the active ingredient prepared as described above. Control plants are treated only with an aqueous solution of Acetone/Dimethyl sulfoxide/Tween® 80. After 24 hours, the plants are contaminated by spraying the leaves with an aqueous suspension of Sphaerotheca fuliginea spores. The contaminated gherkin plants are incubated for 72 hours at 18° C. and at 100% relative humidity and then for 12 days at 20° C. and at 70-80% relative humidity. The test is evaluated 15 days after the inoculation. 0% means an efficacy which corresponds to that of the control plants while an efficacy of 100% means that no disease is observed.

[5] = tested on: Botrytis cinerea; assay: Example A: in vivo preventive test on Botrytis cinerea (grey mould), gherkin; settings: gherkin plants, preventive spray, evaluated 4 to 5 days after inoculation, read-out: efficacy
Method: Example A: In Vivo Preventive Test on Botrytis cinerea (Grey Mould) [table] The active ingredients are made soluble and homogenized in a mixture of Dimethyl sulfoxide/Acetone//Tween® 80 and then diluted in water to the desired concentration. The young plants of gherkin are treated by spraying the active ingredient prepared as described above. Control plants are treated only with an aqueous solution of Acetone/Dimethyl sulfoxide/Tween® 80. After 24 hours, the plants are contaminated by spraying the leaves with an aqueous suspension of Botrytis cinerea spores. The contaminated gherkin plants are incubated for 4 to 5 days at 17° C. and at 90% relative humidity. The test is evaluated 4 to 5 days after the inoculation. 0% means an efficacy which corresponds to that of the control plants while an efficacy of 100% means that no disease is observed.

[6] = tested on: Venturia inaequalis; assay: Example H: in vivo preventive test on Venturia test (apples); settings: 240 h, 100 ppm of active ingredient, preventive spray, evaluated 10 days after inoculation, read-out: efficacy
Method: Example H: In Vivo Preventive Test on Venturia Test (Apples) [table] To produce a suitable preparation of active compound, 1 part by weight of active compound is mixed with the stated amounts of solvent and emulsifier, and the concentrate is diluted with water to the desired concentration. To test for preventive activity, young plants are sprayed with the preparation of active compound at the stated rate of application. After the spray coating has dried on, the plants are inoculated with an aqueous conidia suspension of the causal agent of apple scab (Venturia inaequalis) and then remain for 1 day in an incubation cabinet at approximately 20° C. and a relative atmospheric humidity of 100%. The plants are then placed in a greenhouse at approximately 21° C. and a relative atmospheric humidity of approximately 90%. The test is evaluated 10 days after the inoculation. 0% means an efficacy which corresponds to that of the untreated control, while an efficacy of 100% means that no disease is observed.

[7] = tested on: Uromyces appendiculatus; assay: Example E: in vivo preventive test on Uromyces appendiculatus (bean rust); settings: 264 h, 500 ppm of active ingredient, bean plants, preventive spray, evaluated 11 days after inoculation, read-out: efficacy
Method: (§1) Example E: In Vivo Preventive Test on Uromyces appendiculatus (Bean Rust) [table] The active ingredients are made soluble and homogenized in a mixture of Dimethyl sulfoxide/Acetone//Tween® 80 and then diluted in water to the desired concentration. The young plants of bean are treated by spraying the active ingredient prepared as described above. Control plants are treated only with an aqueous solution of Acetone/Dimethyl sulfoxide/Tween® 80. After 24 hours, the plants are contaminated by spraying the leaves with an aqueous suspension of Uromyces appendiculatus spores. The contaminated bean plants are incubated for 24 hours at 20° C. and at 100% relative humidity and then for 10 days at 20° C. and at 70-80% relative humidity. The test is evaluated 11 days after the inoculation. 0% means an efficacy which corresponds to that of the control plants while an efficacy of 100% means that no disease is observed.

[8] = Measurement of LogP values by HPLC on reversed phase columns (EEC directive 79/831 Annex V.A8); format: physicochemical; settings: reversed phase HPLC column, method [a]: LC-UV, acidic range, 0.1% formic acid in water and acetonitrile as eluent
Summary of the method: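 Calibrated with straight-chain alkan-2-ones (3–16 carbons) of known LogP, using retention times with linear interpolation between successive alkanones. Where one method gives several LogP values, all are listed, joined by "+". Lambda-max taken from UV spectra (200–400 nm) at chromatographic peak maxima.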

[9] = tested on: Puccinia recondita; assay: Example B: in vivo preventive test on Puccinia recondita (brown rust on wheat); settings: 264 h, 500 ppm of active ingredient, wheat plants, preventive spray, evaluated 11 days after inoculation, read-out: efficacy
Method: as §1, with “B:” for “E:”, “Puccinia recondita (Brown Rust on Wheat)” for “Uromyces appendiculatus (Bean Rust)”, “wheat” for “bean”, “Puccinia recondita” for “Uromyces appendiculatus”

SMILES: CC(O)(Cn1cncn1)c1ccc(Oc2ccc(Cl)cc2)cc1C(F)(F)F (stereo not shown) [reference compound]
pest or weed control at 10 ppm [1]: 30%

chromatographic logP [8]: 3
SMILES: Cc1ccc(Oc2ccc(C(C)(O)Cn3cncn3)c(Cl)n2)cc1Cl (stereo not shown) [I.29]
pest or weed control at 100 ppm [2]: 90 to 100%
pest or weed control at 500 ppm [3]: 90 to 100%
pest or weed control at 500 ppm [4]: 90 to 100%
pest or weed control [5]: 90 to 100%
pest or weed control at 100 ppm [6]: 90 to 100%
pest or weed control at 10 ppm [1]: 95%
pest or weed control at 500 ppm [7]: 90 to 100%
pest or weed control at 500 ppm [9]: 80 to 89%
